Laboratory results published in patent US20240109941A1 (University of California, published 2024).
Read-outs that look alike come from different tables or passages of the source.

Assays:
[1] = system: defense marker genes, including PR2, PAL, and CHI; type: in vivo; settings: 10 μM spray, Carrizo seedlings
Liberibacter crescens = type: cell-based; settings: Liberibacter crescens 10^6/mL; for anti-bacterial activity (viability staining, confocal microscopy): 30 μM, 2 hours
[2] = target: the molecule itself; experiment: native PAGE, self-association
E. coli = type: cell-based; settings: compared to L. crescens; concentrations shown in FIG. 5
B. thuringiensis = type: cell-based; settings: compared to L. crescens; concentrations shown in FIG. 5

| Molecule | induction of defense response (PR2, PAL, CHI expression normalized to Ubiquitin) ([1]; 1 day post-treatment) | duration of defense gene induction ([1]; time course up to 7 days post treatment) | anti-bacterial activity (viability staining, confocal microscopy) (Liberibacter crescens) | anti-bacterial activity (viability staining, confocal microscopy) (Liberibacter crescens; listed as helix 2) | anti-bacterial activity compared to full length CghSAMPa (viability staining) (Liberibacter crescens; 5 hours, same concentration or triple dosages of helix 2 vs full length) | binding result [2] | tolerance of E. coli to SAMP treatment (E. coli) | tolerance of B. thuringiensis to SAMP treatment (B. thuringiensis) |
| --- | --- | --- | --- | --- | --- | --- | --- | --- |
| SHVEYANLFLANLEKVLVIDYK [CghSAMPa helix 2, polypeptide containing CghSAMPa helix 2] | induced a defense response | maintained for the 7-day time period | plays an important role in anti-bacterial activity | found to be a functional SAMP | retained much of the anti-bacterial activity of full length SAMP | – | – | – |
| CghSAMPa (full length stable antimicrobial peptide) (In the native gel it ran as polymers, 'likely hexamers based on the molecular weight'; also called MaSSAMP; Syd72SSAMP1) MCCNRGKNVSIENLHQGFTHIFESTFESTEGVAEYVSHPSHVEYANLFLANLEKVLVIDYKPTTVRV | – | – | – | – | – | binds | more tolerant of SAMP treatment compared to L. crescens | highly tolerant |
| SHVEYANLFLANLEKVLVIDYK (22-residue fragment of CghSAMPa holding only the second alpha-helix; In the native gel it ran as polymers, likely hexamers; also called MaSSAMP-helix2; SAMP-helix 2) [CghSAMPa helix 2] | – | – | – | – | – | binds | – | – |
